Calls of active or inactive are those of the source.

The term Kd denotes the free concentration of one partner at which half of the binding sites on the other are occupied at equilibrium, for simple one-to-one binding.

One assay addresses T1, Pyridoxal kinase (Homo sapiens, UniProt O00764).
T1 sequence (O00764 whole entry): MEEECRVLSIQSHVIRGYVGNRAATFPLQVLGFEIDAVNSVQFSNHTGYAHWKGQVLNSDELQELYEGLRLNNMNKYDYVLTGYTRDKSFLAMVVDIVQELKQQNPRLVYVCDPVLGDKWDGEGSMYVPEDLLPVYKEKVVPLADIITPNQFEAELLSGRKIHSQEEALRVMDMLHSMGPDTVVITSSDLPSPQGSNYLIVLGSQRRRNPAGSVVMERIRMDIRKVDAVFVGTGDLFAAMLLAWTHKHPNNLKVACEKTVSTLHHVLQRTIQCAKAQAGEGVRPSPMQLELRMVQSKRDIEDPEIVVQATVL

Assay [1] has as its target GTP-binding nuclear protein Ran (Homo sapiens, UniProt P62826).
The target of assay [2] is T2, Serine/threonine-protein kinase LATS1 (Homo sapiens, UniProt O95835).
T2 sequence (O95835 whole entry): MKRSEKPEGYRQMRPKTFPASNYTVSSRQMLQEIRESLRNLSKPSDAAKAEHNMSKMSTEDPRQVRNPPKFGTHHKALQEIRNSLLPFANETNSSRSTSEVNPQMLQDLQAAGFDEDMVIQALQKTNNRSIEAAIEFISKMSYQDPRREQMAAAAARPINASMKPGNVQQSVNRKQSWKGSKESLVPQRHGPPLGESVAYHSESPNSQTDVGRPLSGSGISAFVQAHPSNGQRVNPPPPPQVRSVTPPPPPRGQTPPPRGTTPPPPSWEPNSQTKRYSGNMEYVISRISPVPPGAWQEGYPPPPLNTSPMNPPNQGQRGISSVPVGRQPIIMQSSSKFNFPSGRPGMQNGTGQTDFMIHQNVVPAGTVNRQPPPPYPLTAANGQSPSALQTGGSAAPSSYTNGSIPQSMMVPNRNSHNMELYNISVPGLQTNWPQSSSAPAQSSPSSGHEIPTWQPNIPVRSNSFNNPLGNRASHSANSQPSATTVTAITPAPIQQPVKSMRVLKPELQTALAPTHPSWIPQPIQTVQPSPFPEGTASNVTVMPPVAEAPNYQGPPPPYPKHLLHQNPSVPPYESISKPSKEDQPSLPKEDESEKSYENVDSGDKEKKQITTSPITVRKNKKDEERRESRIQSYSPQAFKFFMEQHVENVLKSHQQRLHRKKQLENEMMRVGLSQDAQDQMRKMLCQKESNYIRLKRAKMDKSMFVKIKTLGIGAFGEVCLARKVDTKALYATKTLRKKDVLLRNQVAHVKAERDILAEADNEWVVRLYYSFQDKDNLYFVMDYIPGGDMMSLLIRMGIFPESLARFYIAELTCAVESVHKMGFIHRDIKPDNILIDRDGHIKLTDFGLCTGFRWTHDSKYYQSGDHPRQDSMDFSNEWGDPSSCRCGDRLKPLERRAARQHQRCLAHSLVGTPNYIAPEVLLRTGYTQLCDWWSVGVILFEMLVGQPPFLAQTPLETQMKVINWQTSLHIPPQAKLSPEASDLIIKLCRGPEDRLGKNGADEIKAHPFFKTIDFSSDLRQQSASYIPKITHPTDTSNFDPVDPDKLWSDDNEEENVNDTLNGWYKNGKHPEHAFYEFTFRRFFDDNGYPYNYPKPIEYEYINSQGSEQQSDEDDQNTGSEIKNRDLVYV

For assay [3], the target named is Mitogen-activated protein kinase 7 (Homo sapiens, UniProt Q13164).
Assay [4] has as its target Mitogen-activated protein kinase 8 (Homo sapiens, UniProt P45983).
Assay [5] deals with Interleukin-1 receptor-associated kinase 1 (Homo sapiens, UniProt P51617).
Assay [6] addresses Citron Rho-interacting kinase (Homo sapiens, UniProt O14578).
A further assay concerns the target Insulin receptor (Homo sapiens, UniProt P06213).
For assay [7], the target named is T3, Serine/threonine-protein kinase PLK4 (Homo sapiens, UniProt O00444).
T3 sequence (O00444 whole entry): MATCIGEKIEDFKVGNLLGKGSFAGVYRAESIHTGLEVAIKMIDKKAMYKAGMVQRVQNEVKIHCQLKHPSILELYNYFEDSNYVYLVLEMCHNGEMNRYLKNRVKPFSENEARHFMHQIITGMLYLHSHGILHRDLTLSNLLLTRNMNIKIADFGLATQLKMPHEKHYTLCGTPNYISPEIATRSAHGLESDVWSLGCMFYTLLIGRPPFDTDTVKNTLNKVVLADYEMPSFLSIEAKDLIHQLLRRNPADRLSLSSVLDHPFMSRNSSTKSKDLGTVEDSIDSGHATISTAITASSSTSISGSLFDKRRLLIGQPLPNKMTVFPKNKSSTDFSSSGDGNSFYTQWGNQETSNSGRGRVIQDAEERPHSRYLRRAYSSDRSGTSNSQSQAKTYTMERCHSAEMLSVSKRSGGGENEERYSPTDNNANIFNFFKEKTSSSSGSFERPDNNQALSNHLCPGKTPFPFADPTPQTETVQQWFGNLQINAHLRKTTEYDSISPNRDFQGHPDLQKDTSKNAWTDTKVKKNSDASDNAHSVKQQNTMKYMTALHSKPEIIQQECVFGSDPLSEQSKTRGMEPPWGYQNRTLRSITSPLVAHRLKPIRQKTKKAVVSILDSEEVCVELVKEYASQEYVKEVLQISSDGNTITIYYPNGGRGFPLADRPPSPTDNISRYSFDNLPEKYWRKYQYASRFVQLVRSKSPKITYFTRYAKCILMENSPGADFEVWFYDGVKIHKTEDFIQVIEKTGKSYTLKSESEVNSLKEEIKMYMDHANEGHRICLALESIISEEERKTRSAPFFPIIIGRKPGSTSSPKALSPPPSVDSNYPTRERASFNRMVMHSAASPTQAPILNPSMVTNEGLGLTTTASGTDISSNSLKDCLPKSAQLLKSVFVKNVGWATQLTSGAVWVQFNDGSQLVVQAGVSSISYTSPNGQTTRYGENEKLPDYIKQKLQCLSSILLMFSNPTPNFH
Note: in the data inactive means no Kd found up to 30 µM.

Chain of Mitogen-activated protein kinase 7 (Q13164 whole entry): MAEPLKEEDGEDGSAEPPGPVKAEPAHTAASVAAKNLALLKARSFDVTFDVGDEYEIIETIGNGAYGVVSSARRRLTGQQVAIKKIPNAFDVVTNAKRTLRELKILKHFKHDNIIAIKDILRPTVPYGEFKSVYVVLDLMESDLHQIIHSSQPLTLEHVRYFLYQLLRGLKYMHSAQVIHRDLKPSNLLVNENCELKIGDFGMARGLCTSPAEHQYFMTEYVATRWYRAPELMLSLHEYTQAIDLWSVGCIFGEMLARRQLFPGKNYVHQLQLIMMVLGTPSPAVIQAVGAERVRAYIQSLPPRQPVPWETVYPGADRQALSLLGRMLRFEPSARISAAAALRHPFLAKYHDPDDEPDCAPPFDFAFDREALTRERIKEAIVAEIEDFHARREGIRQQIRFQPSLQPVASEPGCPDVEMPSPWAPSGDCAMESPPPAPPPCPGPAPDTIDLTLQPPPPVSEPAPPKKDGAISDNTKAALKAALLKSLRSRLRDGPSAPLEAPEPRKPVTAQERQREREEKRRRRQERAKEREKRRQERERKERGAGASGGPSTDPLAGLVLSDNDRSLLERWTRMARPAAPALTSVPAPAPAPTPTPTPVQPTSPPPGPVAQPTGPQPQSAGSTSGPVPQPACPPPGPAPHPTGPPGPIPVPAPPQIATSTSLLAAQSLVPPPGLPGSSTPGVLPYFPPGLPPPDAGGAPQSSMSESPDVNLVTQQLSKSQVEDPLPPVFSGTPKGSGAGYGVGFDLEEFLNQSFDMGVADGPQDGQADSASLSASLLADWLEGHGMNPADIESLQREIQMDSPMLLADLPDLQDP
Chain of Mitogen-activated protein kinase 8 (P45983 whole entry): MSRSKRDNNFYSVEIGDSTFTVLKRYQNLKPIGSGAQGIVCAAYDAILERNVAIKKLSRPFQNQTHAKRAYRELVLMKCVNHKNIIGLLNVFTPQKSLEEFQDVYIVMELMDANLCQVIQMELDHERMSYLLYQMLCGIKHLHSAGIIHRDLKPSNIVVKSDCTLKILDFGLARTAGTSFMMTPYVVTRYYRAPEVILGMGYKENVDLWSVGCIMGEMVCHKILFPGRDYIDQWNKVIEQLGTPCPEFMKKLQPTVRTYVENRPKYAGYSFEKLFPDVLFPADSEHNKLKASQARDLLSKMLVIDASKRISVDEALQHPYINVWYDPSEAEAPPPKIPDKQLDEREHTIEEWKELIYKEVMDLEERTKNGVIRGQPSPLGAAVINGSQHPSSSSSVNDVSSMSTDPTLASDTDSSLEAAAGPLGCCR
Chain of Citron Rho-interacting kinase (O14578 whole entry): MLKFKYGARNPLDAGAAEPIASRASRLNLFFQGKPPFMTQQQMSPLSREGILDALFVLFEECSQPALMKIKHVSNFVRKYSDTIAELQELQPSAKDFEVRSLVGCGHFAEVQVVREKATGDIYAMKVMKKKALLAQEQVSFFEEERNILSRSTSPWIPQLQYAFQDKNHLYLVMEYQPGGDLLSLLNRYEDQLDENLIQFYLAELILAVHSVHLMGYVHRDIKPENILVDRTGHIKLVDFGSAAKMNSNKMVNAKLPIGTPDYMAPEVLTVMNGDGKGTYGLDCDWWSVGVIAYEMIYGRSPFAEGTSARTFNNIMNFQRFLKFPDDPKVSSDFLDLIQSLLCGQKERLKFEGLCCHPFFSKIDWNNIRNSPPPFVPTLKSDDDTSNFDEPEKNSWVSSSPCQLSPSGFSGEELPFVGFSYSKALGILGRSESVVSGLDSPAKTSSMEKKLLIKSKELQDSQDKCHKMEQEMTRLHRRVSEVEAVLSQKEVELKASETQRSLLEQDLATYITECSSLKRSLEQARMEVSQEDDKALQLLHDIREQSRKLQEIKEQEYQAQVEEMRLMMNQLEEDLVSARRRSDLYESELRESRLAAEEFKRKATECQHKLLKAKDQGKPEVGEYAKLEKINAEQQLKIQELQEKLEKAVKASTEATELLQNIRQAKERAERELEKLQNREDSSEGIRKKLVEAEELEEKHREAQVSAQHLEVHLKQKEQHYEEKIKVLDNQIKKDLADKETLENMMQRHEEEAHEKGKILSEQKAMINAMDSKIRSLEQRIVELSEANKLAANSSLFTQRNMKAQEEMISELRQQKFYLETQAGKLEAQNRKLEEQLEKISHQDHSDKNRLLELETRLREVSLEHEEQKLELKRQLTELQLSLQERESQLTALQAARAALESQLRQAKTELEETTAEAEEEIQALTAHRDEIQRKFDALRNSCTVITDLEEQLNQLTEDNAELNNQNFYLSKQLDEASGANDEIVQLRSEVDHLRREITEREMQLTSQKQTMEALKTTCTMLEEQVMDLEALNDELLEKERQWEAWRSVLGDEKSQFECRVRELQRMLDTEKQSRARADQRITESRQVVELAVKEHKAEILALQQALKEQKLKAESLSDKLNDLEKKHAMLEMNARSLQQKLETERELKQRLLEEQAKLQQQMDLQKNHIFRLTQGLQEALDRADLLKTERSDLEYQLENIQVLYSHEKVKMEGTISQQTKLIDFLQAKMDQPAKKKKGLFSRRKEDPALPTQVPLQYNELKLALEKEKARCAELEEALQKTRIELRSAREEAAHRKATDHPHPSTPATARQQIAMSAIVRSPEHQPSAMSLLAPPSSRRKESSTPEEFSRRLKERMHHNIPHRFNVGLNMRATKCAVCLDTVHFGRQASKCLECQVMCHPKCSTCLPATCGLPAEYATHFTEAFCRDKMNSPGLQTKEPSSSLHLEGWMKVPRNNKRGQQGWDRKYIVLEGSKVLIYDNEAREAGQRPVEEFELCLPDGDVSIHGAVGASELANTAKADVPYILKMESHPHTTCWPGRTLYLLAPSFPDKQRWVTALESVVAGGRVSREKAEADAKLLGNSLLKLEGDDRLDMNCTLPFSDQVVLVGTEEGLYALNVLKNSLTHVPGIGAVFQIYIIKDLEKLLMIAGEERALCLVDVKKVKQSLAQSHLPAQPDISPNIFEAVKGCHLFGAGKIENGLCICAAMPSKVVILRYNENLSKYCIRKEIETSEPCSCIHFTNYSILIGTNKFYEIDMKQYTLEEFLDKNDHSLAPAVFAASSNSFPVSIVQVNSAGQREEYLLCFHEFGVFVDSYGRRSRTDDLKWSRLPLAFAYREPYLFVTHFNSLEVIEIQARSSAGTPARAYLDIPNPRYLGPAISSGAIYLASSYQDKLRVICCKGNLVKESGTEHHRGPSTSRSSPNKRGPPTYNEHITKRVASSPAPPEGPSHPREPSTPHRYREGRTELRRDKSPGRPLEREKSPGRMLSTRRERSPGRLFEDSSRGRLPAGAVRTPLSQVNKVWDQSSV
Chain of Insulin receptor (P06213 28-758 limits assumed): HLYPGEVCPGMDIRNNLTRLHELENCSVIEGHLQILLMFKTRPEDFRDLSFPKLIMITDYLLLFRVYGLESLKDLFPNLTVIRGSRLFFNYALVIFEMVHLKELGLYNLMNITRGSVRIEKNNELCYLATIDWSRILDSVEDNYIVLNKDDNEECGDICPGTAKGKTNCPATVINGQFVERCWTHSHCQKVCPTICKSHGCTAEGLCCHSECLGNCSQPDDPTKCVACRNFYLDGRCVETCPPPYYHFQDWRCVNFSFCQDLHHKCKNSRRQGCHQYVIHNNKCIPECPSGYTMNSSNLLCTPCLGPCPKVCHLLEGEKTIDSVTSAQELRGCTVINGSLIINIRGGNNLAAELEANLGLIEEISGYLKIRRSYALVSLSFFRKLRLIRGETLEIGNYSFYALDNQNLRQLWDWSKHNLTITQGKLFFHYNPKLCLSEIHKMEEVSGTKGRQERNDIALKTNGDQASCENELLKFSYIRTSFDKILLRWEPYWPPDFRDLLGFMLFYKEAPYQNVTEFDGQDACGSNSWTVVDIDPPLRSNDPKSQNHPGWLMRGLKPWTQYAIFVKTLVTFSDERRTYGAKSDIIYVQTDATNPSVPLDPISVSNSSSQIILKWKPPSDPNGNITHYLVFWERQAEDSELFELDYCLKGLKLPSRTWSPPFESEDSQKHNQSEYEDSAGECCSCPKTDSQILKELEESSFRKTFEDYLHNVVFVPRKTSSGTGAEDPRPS
Chain of Insulin receptor (P06213 763-1382 limits assumed): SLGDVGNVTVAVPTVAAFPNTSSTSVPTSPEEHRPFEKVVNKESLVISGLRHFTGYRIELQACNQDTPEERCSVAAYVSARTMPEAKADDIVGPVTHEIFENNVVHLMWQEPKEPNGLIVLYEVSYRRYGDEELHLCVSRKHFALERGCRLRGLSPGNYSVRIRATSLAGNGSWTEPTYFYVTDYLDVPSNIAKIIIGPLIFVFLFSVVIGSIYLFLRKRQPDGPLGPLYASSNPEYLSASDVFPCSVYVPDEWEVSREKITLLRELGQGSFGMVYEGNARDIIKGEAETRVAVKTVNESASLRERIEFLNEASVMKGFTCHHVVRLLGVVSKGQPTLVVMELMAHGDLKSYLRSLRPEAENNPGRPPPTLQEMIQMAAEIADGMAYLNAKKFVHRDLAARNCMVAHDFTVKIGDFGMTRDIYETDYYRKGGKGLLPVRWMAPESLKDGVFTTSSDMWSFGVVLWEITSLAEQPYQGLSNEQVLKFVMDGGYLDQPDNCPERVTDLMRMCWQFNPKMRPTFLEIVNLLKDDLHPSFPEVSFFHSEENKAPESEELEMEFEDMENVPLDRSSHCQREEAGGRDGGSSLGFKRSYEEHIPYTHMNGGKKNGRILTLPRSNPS

Consider `COc1cc(Nc2ncc3c(n2)-c2ccc(Cl)cc2C(c2c(F)cccc2OC)=NC3)ccc1C(=O)O` [ALISERTIB], for which the Kd (at Pyridoxal kinase; in assay [1]; in [2]; in assay [3]) was > 30 µM (inactive) in each case.

In the case of `O=C(Nc1c[nH]nc1-c1nc2cc(CN3CCOCC3)ccc2[nH]1)NC1CC1` [AT-9283], the Kd in assay [4] was 0.157 µM (active); in assay [5], > 30 µM (inactive); at Pyridoxal kinase, > 30 µM (inactive); in assay [1] it was > 30 µM (inactive); in assay [6], > 30 µM (inactive); at Insulin receptor, > 30 µM (inactive). Further, the Kd in assay [2] was 0.045 µM (active); in [7], 0.021 µM (active); in [3], > 30 µM (inactive).

On to `CNC(=O)c1ccccc1Sc1ccc2c(/C=C/c3ccccn3)n[nH]c2c1` [AXITINIB], for which the Kd (on Pyridoxal kinase; in [1]) was > 30 µM (inactive) each time.

In the case of `C#Cc1cccc(Nc2ncnc3cc(OC)c(OCCCCCCC(=O)NO)cc23)c1` [CUDC-101], the Kd (in [4]; in assay [5]; on Pyridoxal kinase; in [1]; in assay [6]; on Insulin receptor) was > 30 µM (inactive) each time. In addition, the Kd in assay [2], in assay [7] and in assay [3] was > 30 µM (inactive) each time.

`CC(C)(C)c1nc(-c2cccc(NS(=O)(=O)c3c(F)cccc3F)c2F)c(-c2ccnc(N)n2)s1` [DABRAFENIB]: the Kd (in assay [4]; at Pyridoxal kinase; in assay [1]; in [6]; on Insulin receptor; in assay [2]) was > 30 µM (inactive) throughout. The dissociation constant Kd in [7] was 0.52 µM (active); in [3], > 30 µM (inactive).

Turning to `Cn1cc(C2=C(c3cn(C4CCN(Cc5ccccn5)CC4)c4ccccc34)C(=O)NC2=O)c2ccccc21` [ENZASTAURIN], the Kd (on Pyridoxal kinase; in assay [1]) was > 30 µM (inactive) each time.

Turning to `C[C@@H](Oc1cc(-n2cnc3ccc(CN4CCN(C)CC4)cc32)sc1C(N)=O)c1ccccc1C(F)(F)F` [GSK-461364], the Kd (at Pyridoxal kinase; in [1]) was > 30 µM (inactive) in each case.

As to `CCn1cc(-c2ccnc3[nH]c(-c4cccc(CN(C)C)c4)cc23)c(-c2ccc(NC(=O)N(C)C)cc2)n1` [GSK-1070916], the Kd in assay [5] was > 30 µM (inactive); at Pyridoxal kinase it was > 30 µM (inactive); in assay [1], > 30 µM (inactive); in assay [6] it was 2.89 µM (active); in [2], > 30 µM (inactive); in [3], > 30 µM (inactive).

In the case of `CNC(=O)c1nn(C)c2c1C(C)(C)Cc1cnc(Nc3ccc(N4CCN(C)CC4)cc3)nc1-2` [MILCICLIB], the Kd in assay [4] was > 30 µM (inactive); in assay [5], 2.06 µM (active); at Pyridoxal kinase it was > 30 µM (inactive); in assay [1], > 30 µM (inactive); in [6], > 30 µM (inactive); at Insulin receptor it was > 30 µM (inactive). The dissociation constant (Kd) is 0.681 µM (active) in assay [2], > 30 µM (inactive) in assay [7] and > 30 µM (inactive) in [3].

In the case of `Cc1[nH]c(/C=C2\C(=O)Nc3ccccc32)c(C)c1CCC(=O)O` [ORANTINIB], the Kd (at Pyridoxal kinase; in assay [1]; in [6]; in assay [3]) was > 30 µM (inactive) each time.

As to `NC(=O)c1c(OCc2c(F)cc(Br)cc2F)nsc1NC(=O)NCCCCN1CCCC1` [OSI-632], the Kd (on Pyridoxal kinase; in assay [1]; in assay [6]; in assay [2]) was > 30 µM (inactive) throughout.

In the case of `CCOc1cc2ncc(C#N)c(Nc3ccc(F)c(Cl)c3)c2cc1NC(=O)/C=C/CN(C)C` [PELITINIB], the Kd (in assay [4]; in assay [5]; on Pyridoxal kinase; in assay [1]; in assay [6]; on Insulin receptor) was > 30 µM (inactive) in each case. Further, the Kd in [2], in [7] and in assay [3] was > 30 µM (inactive) in each case.

For `CC(=O)NCC(=O)N1[C@@H]2CC[C@H]1c1ccc(Nc3ncc(C(F)(F)F)c(NC4CCC4)n3)cc12` [PF-03814735], the Kd was > 30 µM (inactive) at Pyridoxal kinase; > 30 µM (inactive) in assay [1]; > 30 µM (inactive) in assay [6]; 0.406 µM (active) in assay [2]; 2.96 µM in [3].

Turning to `CNC(=O)c1cc(Oc2ccc(NC(=O)Nc3cc(C(C)(C)C)nn3-c3ccc4ncccc4c3)c(F)c2)ccn1` [REBASTINIB], the Kd was > 30 µM (inactive) on Pyridoxal kinase; > 30 µM (inactive) in assay [1]; > 30 µM (inactive) in [6]; > 30 µM (inactive) at Insulin receptor; > 30 µM (inactive) in assay [2]; 4.09 µM (active) in assay [7]. In addition, the Kd in assay [3] is > 30 µM (inactive).

Turning to `O=C(NOCCO)c1cc(CN2OCCCC2=O)c(F)c(F)c1Nc1ccc(I)cc1F` [RO-4987655], the Kd (at Pyridoxal kinase; in [1]) was > 30 µM (inactive) in each case.

With `N#CC[C@H](C1CCCC1)n1cc(-c2ncnc3[nH]ccc23)cn1` [RUXOLITINIB], the Kd (at Pyridoxal kinase; in assay [1]) was > 30 µM (inactive) each time.

In the case of `CN1CCN(CCOc2cc(OC3CCOCC3)c3c(Nc4c(Cl)ccc5c4OCO5)ncnc3c2)CC1` [SARACATINIB], the Kd (in assay [4]; in [5]; on Pyridoxal kinase; in [1]; in assay [6]; on Insulin receptor) was > 30 µM (inactive) throughout. Besides, the Kd in assay [2], in [7] and in assay [3] was > 30 µM (inactive) in each case.
